Data on ten compounds can be found in patent publication US9314468B2, “Chemokine receptor modulators” (Altiris Therapeutics, Inc., priority 2008, dated 2016).

For data set [1] the following is noted: in vivo; cited from earlier work.
For another data set, the system named is T-tropic HIV. Description: Phenoscreen HIV entry inhibition assay. Type of data set: cell-based. As to conditions: Human immunodeficiency virus 1, read-out: IC50 for viral entry inhibition. As to the method:
A selected set of compounds are tested for their ability to inhibit the cellular entry of T-tropic HIV. The assay for this inhibition is carried out on a contractual basis at Monogram Biosciences, Inc. using their well established Phenoscreen™ assay. Briefly, HIV strains of interest are tagged with a luciferase indicator gene to create an appropriate test vector. The test vector is amplified through transfection and the resulting virus is incubated in the presence of target host cells where intracellular […] activity then becomes a measure of infection. Amplified virus is exposed to target host cells in the presence of a range of test drug concentrations to determine IC50 measurements of entry inhibition. A modification of this test is further reapplied as a novel drug assay used in partnership with a number of pharmaceutical companies to test the effectiveness of novel entry inhibitors that target specific chemokines. It can used to detect activity against T-tropic, M-tropic, and dual-tropic viruses and Monogram Biosciences has a large bank of over 10,000 different virus strains to ultimately asses the range of applicability of our chemokine modulators. Certain compounds are tested to establish efficacy in a number of viral strains.

The nature of data set [2]: Cytotoxicity assay, 6 days. In kind it is cell-based. As to conditions: human, CCRF-CEM cells. As to the method:
Cytotoxicity of the compounds was assessed by the following assay. CCRF-CEM cells in media (RPMI 1640, 15% FBS, Pen/Strep., 1% non-essential amino acids) are incubated with various concentrations of test compound for 6 days undisturbed. Cell number relative to no compound controls is determined using either Serotec's “Alamar blue” per manufacturers protocol or Promega's “Cell Titer 96 Aqueous One Solution Cell Proliferation Assay” kit per manufacturers protocol. The number cells not surviving after test compound administration is determined for each concentration tested and the EC50 (concentration of compound in which 50% of the cells survive) is determined

The target of data set [3] is hERG (human ether-á-go-go-related gene) potassium channel (Homo sapiens (Human), UniProt Q12809). Description: hERG potassium channel current, automatic patch clamp. In kind it is cell-based. The note with it: PatchXpress, 5 minutes exposure, room temperature. The protocol:
The in vitro effects of the selected compounds on the hERG (human ether-á-go-go-related gene) potassium channel current (a surrogate for IKr, the rapidly activating, delayed rectifier cardiac potassium current) expressed in mammalian cells were evaluated at room temperature using the PatchXpress 7000A (Molecular Devices), an automatic parallel patch clamp system.
In general terms: hERG is a cardiac potassium channel; its block is linked to QT prolongation.

Another data set addresses CXCR4 (Homo sapiens (Human), UniProt P61073). Description: Functional calcium mobilization assay (SDF-1α induced). In kind it is cell-based. As to conditions: Table 9, selected compounds; read-out: Ca Flux IC50.
The test system of a further data set is MT-4 cells. The note with it: cited from earlier work.
In a further data set the test system is HIV. As to conditions: MT-4 cells; read-out: concentration required for 50% protection of HIV-induced cytopathogenicity; cited from earlier work. Background: Cytopathic effects are the visible damage that an infection or toxin causes in cultured cells.

Where a name gives a salt, the structure may show the parent alone. Some results are limits rather than exact numbers.

Chain of hERG (human ether-á-go-go-related gene) potassium channel (Q12809 whole entry): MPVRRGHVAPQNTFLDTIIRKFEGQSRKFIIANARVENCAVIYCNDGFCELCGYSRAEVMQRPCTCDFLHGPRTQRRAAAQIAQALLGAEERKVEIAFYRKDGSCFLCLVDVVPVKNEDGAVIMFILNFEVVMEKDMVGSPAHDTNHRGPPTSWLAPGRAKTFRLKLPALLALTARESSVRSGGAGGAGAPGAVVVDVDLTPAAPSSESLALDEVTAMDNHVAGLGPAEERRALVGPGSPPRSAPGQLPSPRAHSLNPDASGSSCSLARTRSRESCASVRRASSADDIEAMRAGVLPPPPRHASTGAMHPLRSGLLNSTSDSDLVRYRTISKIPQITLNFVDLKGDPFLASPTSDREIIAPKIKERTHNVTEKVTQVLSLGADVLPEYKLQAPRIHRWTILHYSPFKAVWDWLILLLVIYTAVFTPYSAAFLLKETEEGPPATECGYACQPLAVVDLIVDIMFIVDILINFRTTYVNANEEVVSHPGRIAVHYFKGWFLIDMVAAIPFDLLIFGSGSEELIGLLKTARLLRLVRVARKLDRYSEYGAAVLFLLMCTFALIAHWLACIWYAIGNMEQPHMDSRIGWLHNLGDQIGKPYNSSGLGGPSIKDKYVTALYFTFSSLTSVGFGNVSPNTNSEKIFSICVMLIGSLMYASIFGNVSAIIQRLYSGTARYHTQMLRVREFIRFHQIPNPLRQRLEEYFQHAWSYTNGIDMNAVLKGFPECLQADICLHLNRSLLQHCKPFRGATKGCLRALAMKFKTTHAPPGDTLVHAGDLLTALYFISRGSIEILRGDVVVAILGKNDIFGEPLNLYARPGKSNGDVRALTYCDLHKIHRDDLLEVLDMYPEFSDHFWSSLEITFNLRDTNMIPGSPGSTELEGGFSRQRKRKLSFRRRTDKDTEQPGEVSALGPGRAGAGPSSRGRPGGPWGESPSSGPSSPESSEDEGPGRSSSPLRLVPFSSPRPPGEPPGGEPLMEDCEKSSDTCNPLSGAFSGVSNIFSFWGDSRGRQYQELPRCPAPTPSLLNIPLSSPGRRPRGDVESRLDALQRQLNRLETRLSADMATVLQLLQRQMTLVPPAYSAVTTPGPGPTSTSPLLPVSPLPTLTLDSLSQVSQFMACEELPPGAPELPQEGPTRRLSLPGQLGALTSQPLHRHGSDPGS
Chain of CXCR4 (P61073 whole entry): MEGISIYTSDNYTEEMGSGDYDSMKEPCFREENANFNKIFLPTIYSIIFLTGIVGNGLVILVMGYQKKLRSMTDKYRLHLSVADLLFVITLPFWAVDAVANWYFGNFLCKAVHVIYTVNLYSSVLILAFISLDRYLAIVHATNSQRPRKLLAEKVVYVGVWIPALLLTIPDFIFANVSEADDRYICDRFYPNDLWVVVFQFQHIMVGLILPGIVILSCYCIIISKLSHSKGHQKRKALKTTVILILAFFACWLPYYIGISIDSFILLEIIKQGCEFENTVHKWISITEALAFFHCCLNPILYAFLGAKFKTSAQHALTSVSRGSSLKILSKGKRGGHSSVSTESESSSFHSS

In the case of `c1cc(CN2CCCNCCNCCCNCC2)ccc1CN1CCCNCCNCCCNCC1` [AMD3100], the “side effect in clinical study” value in data set [1] is recorded as “cardiac-related side effect”.

In the case of `CC(C)CN(CCC[C@H](NC1CCCc2cccnc21)C(=O)N[C@H](C)c1cccc2ccccc12)CC(C)C` (stereo partly drawn) [AY, (S)-5-(diisobutylamino)-N-((R)-1-(naphthalen-1-yl)ethyl)-2-(5,6,7,8-tetrahydroquinolin-8-ylamino)pentanamide trihydrochloride], the IC50 with T-tropic HIV was at most 10 µM.

Regarding `NCCCCN(Cc1cccc2cc[nH]c12)C1CCCc2cccnc21` (centres unmarked) [B, N1-((1H-indol-7-yl)methyl)-N1-(5,6,7,8-tetrahydroquinolin-8-yl)butane-1,4-diamine], in the data set on T-tropic HIV, the 50% inhibitory concentration (IC50) is at most 10 µM.

As for `CN(Cc1nnc(-c2ccccc2)n1C)C1CCCc2cccnc21` (centres unmarked) [BP, N-methyl-N-((4-methyl-5-phenyl-4H-1,2,4-triazol-3-yl)methyl)-5,6,7,8-tetrahydroquinolin-8-amine], the half-maximal inhibitory concentration (IC50) with T-tropic HIV was at most 10 µM.

With `NCCCCN(Cc1cn(-c2ccccc2)nn1)C1CCCc2cccnc21` (centres unmarked) [Z, N-(4-aminobutyl)-N-((1-phenyl-1H-1,2,3-triazol-4-yl)methyl)-5,6,7,8-tetrahydro-quinolin-8-amine tetrahydrochloride], the IC50 with T-tropic HIV was at most 10 µM.

With `NCCCCN(Cc1nccc2c3ccccc3n(CC(=O)O)c12)[C@H]1CCCc2cccnc21` [drawing 820], the EC50 at 6 days in data set [2] was 30 µM. The IC50 stood at 2.7 µM in data set [3] and 0.022 µM at CXCR4.

The compound `NCCCCN(Cc1nccc2c3ccccc3n(CCCN3CCNCC3)c12)[C@H]1CCCc2cccnc21` [drawing 822] registered an EC50 at 6 days in data set [2] of 30 µM. Further, the half-maximal inhibitory concentration (IC50) was 4.1 µM in data set [3] and 0.016 µM on CXCR4.

Take `c1cnc2c(c1)CCCC2N(CCCN1CCNCC1)Cc1nccc2c3ccccc3n(CCN3CCOCC3)c12` (centres unmarked) [drawing 830]: the 50% inhibitory concentration (IC50) turned out to be 3.1 µM in data set [3] and 0.024 µM at CXCR4.

`NCCCCN(Cc1nccc2c3ccccc3n(CC(N)=O)c12)[C@H]1CCCc2cccnc21` [drawing 832]: the figures for the concentration for half-maximal inhibition (IC50) (in data set [3]; at CXCR4) were 1.8 µM and 0.018 µM, respectively.

For the compound TN14003, the “concentration leading to 50% toxicity” value in the data set on MT-4 cells is reported as 410. Besides, the EC50 with HIV is 0.0006 µM.

For orientation: IC50 means the midpoint of a concentration-inhibition curve.
